Several values for one entry are separate records, joined by “and”; a condition that tells them apart may be missing. Equal values may be shown once.
What was measured:
human LAT1 [1] = target: T1, human LAT1 (Homo sapiens, UniProt Q01650); experiment: Inhibition of L-[14C]leucine uptake in HEK293-hLAT1 cells; assay type: cell-based; conditions: for Inhibition of LAT1-mediated L-[14C]leucine uptake (in words, rank order): 1 μM L-[14C]leucine, 1 min, compounds at 10, 30, 100 μM; for Ki: L-[14C]leucine uptake, HEK293-hLAT1, mean ± S.E.M., n = 3–4, read-out: Ki (μM) LAT1; for Ki ratio (LAT2/LAT1): LAT1 selectivity, LAT2 Ki over LAT1 Ki
T1 construct: expressed in transfected cells
T1 sequence (Q01650 whole entry, one chain of several): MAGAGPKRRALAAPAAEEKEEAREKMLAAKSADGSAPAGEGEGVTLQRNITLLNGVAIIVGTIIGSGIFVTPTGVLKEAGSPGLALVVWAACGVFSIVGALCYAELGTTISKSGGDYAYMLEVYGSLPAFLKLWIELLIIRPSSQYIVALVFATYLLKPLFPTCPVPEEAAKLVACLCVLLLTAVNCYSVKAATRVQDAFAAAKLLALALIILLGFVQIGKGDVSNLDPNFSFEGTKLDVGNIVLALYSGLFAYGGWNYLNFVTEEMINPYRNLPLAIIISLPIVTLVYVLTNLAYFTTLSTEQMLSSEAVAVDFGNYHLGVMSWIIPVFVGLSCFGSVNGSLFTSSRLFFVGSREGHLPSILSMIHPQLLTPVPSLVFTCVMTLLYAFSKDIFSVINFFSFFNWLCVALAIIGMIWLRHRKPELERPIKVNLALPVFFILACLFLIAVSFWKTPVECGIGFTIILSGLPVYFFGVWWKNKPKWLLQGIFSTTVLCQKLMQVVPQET
Excerpt: (§1) In this study, we used the HEK293 cells stably expressing human LAT1 or human LAT2, which form a heterodimeric complex with endogenous 4F2hc (CD98hc), required for plasma membrane localization. We first explored the impact of halogen group positioning in the benzene ring of Phe (Fig. 1) on its interaction with LAT1 and LAT2. […] We conducted inhibition experiments to measure the uptake of L-[^14C]leucine by LAT1 and L-[^14C]alanine by LAT2 in the presence or absence of Phe derivatives with an iodo group at position 2, 3, or 4 in the benzene ring.
(§2) The inhibition experiments were performed as described previously. HEK293-hLAT1 (1.5 × 10^5 cells/well) or HEK293-hLAT2 (2 × 10^5 cells/well) cells were plated onto poly-D-lysine-coated 24-well plates (Corning, New York, USA). Following a 2-day culture period, the uptake of 1 μM L-[^14C]leucine or L-[^14C]alanine was measured for 1 min in the absence or presence of non-radiolabeled test compounds at concentrations of 10, 30, and 100 μM. Radioactivity was quantified using a β-scintillation counter (LSC-3100; Aloka, Tokyo, Japan), and protein concentrations were determined with a Micro BCA Protein Assay Kit (Thermo Fisher Scientific, Rockford, IL). To calculate Ki values, the concentration-dependent uptake of L-[^14C]leucine or L-[^14C]alanine was analyzed in the presence and absence of test compounds[49]. The data were plotted against substrate concentration and fitted to Michaelis–Menten kinetics. Ki values were derived using nonlinear regression analysis with the enzyme kinetics inhibition module in GraphPad Prism software (Version 10.0.2; GraphPad Software Inc., San Diego, CA, USA).

human LAT2 [2] = target: T2, human LAT2 (Homo sapiens, UniProt Q9UHI5); experiment: Inhibition of L-[14C]alanine uptake in HEK293-hLAT2 cells; assay type: cell-based; conditions: for Inhibition of LAT2-mediated L-[14C]alanine uptake (in words, rank order): 1 μM L-[14C]alanine, 1 min, compounds at 10, 30, 100 μM; for Ki: L-[14C]alanine uptake, HEK293-hLAT2, mean ± S.E.M., n = 3–4, read-out: Ki (μM) LAT2
T2 construct: expressed in transfected cells
T2 sequence (Q9UHI5 1-535): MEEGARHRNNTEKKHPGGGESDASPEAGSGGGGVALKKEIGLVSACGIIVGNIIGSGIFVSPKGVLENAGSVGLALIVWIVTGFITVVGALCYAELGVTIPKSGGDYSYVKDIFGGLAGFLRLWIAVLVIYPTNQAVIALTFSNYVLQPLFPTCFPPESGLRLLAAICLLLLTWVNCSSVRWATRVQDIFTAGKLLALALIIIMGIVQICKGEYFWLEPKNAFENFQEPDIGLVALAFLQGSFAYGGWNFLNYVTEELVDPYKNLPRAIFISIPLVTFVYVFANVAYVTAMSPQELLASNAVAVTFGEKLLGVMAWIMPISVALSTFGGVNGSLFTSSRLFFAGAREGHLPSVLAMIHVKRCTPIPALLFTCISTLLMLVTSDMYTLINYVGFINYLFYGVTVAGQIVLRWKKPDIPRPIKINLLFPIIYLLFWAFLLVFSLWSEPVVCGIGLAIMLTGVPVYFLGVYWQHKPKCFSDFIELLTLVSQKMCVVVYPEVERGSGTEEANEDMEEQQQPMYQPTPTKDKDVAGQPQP
T2 sequence (P08195 1-529 partner): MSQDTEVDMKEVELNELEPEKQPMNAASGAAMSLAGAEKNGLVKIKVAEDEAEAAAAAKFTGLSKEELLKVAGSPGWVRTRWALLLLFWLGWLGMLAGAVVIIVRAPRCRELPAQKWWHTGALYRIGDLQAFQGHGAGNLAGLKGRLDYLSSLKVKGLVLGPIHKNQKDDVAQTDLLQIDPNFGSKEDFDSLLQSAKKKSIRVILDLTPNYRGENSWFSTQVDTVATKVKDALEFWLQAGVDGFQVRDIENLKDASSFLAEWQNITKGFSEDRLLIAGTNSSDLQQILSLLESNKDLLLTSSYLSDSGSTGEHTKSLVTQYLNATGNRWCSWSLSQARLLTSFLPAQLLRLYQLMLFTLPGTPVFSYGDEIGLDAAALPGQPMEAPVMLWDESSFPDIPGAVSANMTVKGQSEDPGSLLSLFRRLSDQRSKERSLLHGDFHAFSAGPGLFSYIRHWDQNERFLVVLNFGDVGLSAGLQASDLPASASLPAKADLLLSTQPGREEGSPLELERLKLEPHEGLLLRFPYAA
Excerpt: as §1, §2

human LAT1 [3] = target: T1, human LAT1; experiment: Efflux of pre-loaded L-[14C]leucine from HEK293-hLAT1 cells induced by extracellular compounds; assay type: cell-based; conditions: for Km / Vmax of efflux (% radioactivity/min): LAT1, L-[14C]leucine efflux, mean ± S.E.M., n = 3; for Km / Vmax of efflux (% radioactivity/min) / LAT1-mediated L-[14C]leucine efflux induced (in words): 1 min; for LAT1-mediated L-[14C]leucine efflux induced (in words): compounds at 10, 30, 100 μM
Protocol: (§3) We evaluated the efflux of pre-loaded L-[^14C]leucine from LAT1 and pre-loaded L-[^14C]alanine from LAT2 induced by extracellularly applied compounds.
(§4) Efflux experiments were performed as described previously. Cells cultured 48 h were pre-loaded with 5 μM L-[^14C]leucine or L-[^14C]alanine for 10 min at 37 °C. The cells were then washed, and the efflux was induced by incubating cells for 1 min in either the absence or presence of non-radiolabeled test compounds at indicated concentrations. The efflux time of 1 min fell within the linear range of time-dependent substrate efflux mediated by LAT1 and LAT2 (Supplementary Fig. S2). Following incubation, the medium was collected and radioactivity was measured in both the medium and the cells. Efflux was quantified as the percentage of radioactivity released into the medium, calculated using the formula: radioactivity of medium/(radioactivity of medium + radioactivity of cells) × 100%.
(§5) The kinetic parameters for the efflux of L-[^14C]leucine or L-[^14C]alanine induced by various concentrations of extracellularly-applied test compounds were analyzed. The baseline efflux values—those obtained in the absence of test compounds—were subtracted from the values measured in the presence of the compounds. The resultant data were fitted to Michaelis–Menten kinetics to determine the Km and Vmax by nonlinear regression analysis using “enzyme kinetics-velocity as a function of substrate” module within GraphPad Prism software.

human LAT2 [4] = target: T2, human LAT2; experiment: Efflux of pre-loaded L-[14C]alanine from HEK293-hLAT2 cells induced by extracellular compounds; assay type: cell-based; conditions: for Vmax of efflux (% radioactivity/min): LAT2, L-[14C]alanine efflux, mean ± S.E.M., n = 3
Protocol: as §3, §4, §5

[5] = parameters: method as in PMID 11901210; conditions: correlated with LAT1 Ki; cited from earlier work
[6] = Tissue accumulation (plasma, tumor, small intestine) in B16-F10 tumor-bearing mice, HPLC; assay type: in vivo
Protocol: Female C57BL/6J mice were subcutaneously injected with 2 × 10^6 B16-F10 cells. The cells were prepared in a mixture containing a 1:1 volume ratio of phosphate-buffered saline (PBS) and Matrigel (Corning, New York, USA), with the total injection volume being 200 μL, administered into the dorsal flank. Tumor growth was measured bi-daily using calipers until tumors reached a size of approximately 300 ~ 500 mm^3, at which point they were deemed palpable. […] Blood samples were collected at 30 and 60 min post-administration. Then both the tumors and small intestines were excised and weighed for subsequent analysis by HPLC.
(§6) HPLC analyses were conducted as previously described. In brief, tumors and small intestines were homogenized in ice-cold PBS (3 times the tissue weight, v/w). The homogenates were then centrifuged at 15,000 ×g for 40 min at 4 °C. A 10 μL aliquot of the tissue supernatant or plasma was mixed with 190 μL of acetonitrile (MeCN) to precipitate proteins. This mixture was subsequently centrifuged at 15,000 ×g for 30 min at 4 °C. The resulting supernatant (100 μL) was dried, and the residue was reconstituted in 20 μL of 400 mM sodium borate (pH 8.0). Finally, 5 μL of 40 mM 4-fluoro-7-nitro-2,1,3-benzoxadiazole (NBD-F) in MeCN was added for fluorescence derivatization. HPLC analysis was carried out using a NANOSPACE SI-2 HPLC system (Shiseido, Tokyo, Japan) equipped with a fluorescence detector. […] The mobile phase consisted of MeCN, water, and trifluoroacetic acid (TFA) in a 27.5:72.5:0.05 (v/v/v) ratio, delivered at a flow rate of 200 μL/min.

[7] = Plasma concentration-time profile in normal mice after intravenous administration; assay type: in vivo; conditions: C57BL/6J mice, i.v., 15, 30, 60, 120 min; 2-F-Tyr 15.6 mg/kg, bicyclic-Phe 15 mg/kg
Protocol: The blood samples were collected at 15, 30, 60, and 120 min post-administration into lithium heparin-coated tubes (BD, New Jersey, USA) and then centrifuged at 1,500 ×g for 10 min at 23 °C. The resulting plasma was stored at −80 °C pending analysis by HPLC.
as §6

Compound	Inhibition of LAT1-mediated L-[14C]leucine uptake (in words, rank order) (human LAT1 [1])	Inhibition of LAT2-mediated L-[14C]alanine uptake (in words, rank order) (human LAT2 [2])	Ki (human LAT1 [1]) [µM]	Ki ratio (LAT2/LAT1) (human LAT1 [1])	Ki (human LAT2 [2]) [µM]	other results
N[C@@H](Cc1cccc(Br)c1)C(=O)O [3-Br-Phe, 3-Bromo-L-phenylalanine]	3-Cl-Phe < 3-Br-Phe	3-Cl-Phe < 3-Br-Phe	–	–	–	–
C[C@](N)(Cc1ccccc1)C(=O)O [α-methyl-Phe, α-Methyl-L-phenylalanine, reference compound]	inhibit	minimal inhibition	157 ± 19.5	10.74	1680 ± 272	Km (human LAT1 [3]): 67.9 ± 7.39 µM; Vmax of efflux (% radioactivity/min) (human LAT1 [3]): 15.45 ± 0.45 % radioactivity/min; LAT1-mediated L-[14C]leucine efflux induced (in words) (human LAT1 [3]): transported by LAT1 as substrates; Vmax of efflux (% radioactivity/min) (human LAT2 [4]; 1 min): 27.28 ± 0.70 % radioactivity/min; LAT2-mediated L-[14C]alanine efflux induced (in words) (human LAT2 [4]; compounds at 10, 30, 100 μM, 1 min): not efficiently transported by LAT2
N[C@@H](Cc1cccc(I)c1)C(=O)O [3-I-Phe]	markedly inhibited and 3-Br-Phe < 3-I-Phe	4-I-Phe < 3-I-Phe and 3-Br-Phe < 3-I-Phe	–	–	–	–
N[C@@H](Cc1ccccc1)C(=O)O [Phe, phenylalanine]	inhibit	–	43.5 ± 6.28	2.53	110 ± 20	Km (human LAT1 [3]): 8.92 ± 1.08 µM; Vmax of efflux (% radioactivity/min) (human LAT1 [3]): 13.32 ± 0.31 % radioactivity/min; Ratio to Vmax of Phe (human LAT1 [3]; LAT1 efflux): (1.00); LAT1-mediated L-[14C]leucine efflux induced (in words) (human LAT1 [3]): induced a notable efflux; Vmax of efflux (% radioactivity/min) (human LAT2 [4]; 1 min): 39.60 ± 0.74 % radioactivity/min; Ratio to Vmax of Phe (human LAT2 [4]; LAT2 efflux): (1.00)
N[C@@H](Cc1ccccc1Br)C(=O)O [2-Br-Phe]	2-Cl-Phe < 2-Br-Phe	–	–	–	–	–
N[C@H](C(=O)O)c1ccccc1 [Phg, L-phenylglycine]	inhibit	minimal inhibition	96.8 ± 13.2	2.50	242 ± 20.8	–
N[C@@H](Cc1ccc(O)c(O)c1)C(=O)O [L-DOPA]	–	–	–	–	–	Carbonyl oxygen charge [5]: −0.5633
N[C@@H](Cc1ccc(O)cc1F)C(=O)O [2-F-Tyr, 2-Fluoro-L-tyrosine, reference compound]	–	–	–	–	–	Small intestine-to-plasma ratio (I/P) (in words) ([6]; 30 and 60 min after i.v., equimolar doses): considerably higher for 2-F-Tyr than for bicyclic-Phe; Concentration in tumor compared with plasma ([6]; i.v., normalized to tissue weight / plasma volume, 2-F-Tyr at 60 min): higher in the tumor than in plasma; Plasma concentration (in words) [7]: time-dependent decreases in plasma concentration
N[C@@H](Cc1ccccc1Cl)C(=O)O [2-Cl-Phe]	Phe < 2-Cl-Phe	–	–	–	–	–
